Experimental data: the supplement of paper PMC8960247
Counter-ions that a name gives are not always drawn. ± gives the standard error.

How the values were obtained:
621-102 (TSC2-deficient) = test: relative viability vs DMSO; higher = less cytotoxic; conditions: serum: 10% FBS, 72 h
621-103 (TSC2-rescued) = test: as above; conditions: serum: 10% FBS, 72 h
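Also: immortalized renal angiomyolipoma cells stably carrying empty vector or TSC2, dosed in 384-well plates in DMEM, viability normalized to vehicle-treated wells within each plate.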

| SMILES | relative viability (621-102 (TSC2-deficient); 0.0001 µM) [%] | relative viability (621-102 (TSC2-deficient); 0.001 µM) [%] | relative viability (621-102 (TSC2-deficient); 0.01 µM) [%] | relative viability (621-102 (TSC2-deficient); 0.1 µM) [%] | relative viability (621-102 (TSC2-deficient); 1 µM) [%] | relative viability (621-102 (TSC2-deficient); 10 µM) [%] | relative viability (621-103 (TSC2-rescued); 0.0001 µM) [%] | relative viability (621-103 (TSC2-rescued); 0.001 µM) [%] | relative viability (621-103 (TSC2-rescued); 0.01 µM) [%] | relative viability (621-103 (TSC2-rescued); 0.1 µM) [%] | relative viability (621-103 (TSC2-rescued); 1 µM) [%] | relative viability (621-103 (TSC2-rescued); 10 µM) [%] |
| --- | --- | --- | --- | --- | --- | --- | --- | --- | --- | --- | --- | --- |
| C[C@H](NC(=O)Cc1cc(F)cc(F)c1)C(=O)N[C@H](C(=O)OC(C)(C)C)c1ccccc1 [DAPT (GSI-IX)] | 104 ± 4.3 | 99.1 ± 1.5 | 100 ± 2.3 | 97.82 ± 0.41 | 97.7 ± 4.1 | 97.1 ± 5.9 | 94.6 ± 6.5 | 105.2 ± 0.68 | 103.7 ± 0.49 | 101.4 ± 0.89 | 97.2 ± 2.8 | 98.2 ± 1.4 |
| C[C@]12CC[C@H](O)CC1=CC[C@@H]1[C@@H]2CC[C@]2(C)C(=O)CC[C@@H]12 [DHEA] | 105.05 ± 0.093 | 105 ± 1.6 | 99.6 ± 3.3 | 104 ± 2.9 | 97.2 ± 3.6 | 107 ± 1.8 | 73.1 ± 4.3 | 81.7 ± 1.7 | 80.2 ± 3.5 | 86.4 ± 7 | 79 ± 6 | 71.2 ± 8.4 |
| CC(C)(C)OC(=O)N[C@H]1CCCCC/C=C\[C@@H]2C[C@@]2(C(=O)NS(=O)(=O)C2CC2)NC(=O)[C@@H]2C[C@@H](OC(=O)N3Cc4cccc(F)c4C3)CN2C1=O [Danoprevir] | 105 ± 3.4 | 111 ± 3.4 | 113 ± 1.2 | 114 ± 3.5 | 97.9 ± 4.1 | 105.7 ± 0.94 | 100.3 ± 0.43 | 104.2 ± 0.88 | 101 ± 3.4 | 101.8 ± 0.53 | 98.14 ± 0.84 | 99.4 ± 1.5 |
| Cc1nc(Nc2ncc(C(=O)Nc3c(C)cccc3Cl)s2)cc(N2CCN(CCO)CC2)n1 [Dasatinib] | 71.7 ± 5.2 | 85.1 ± 7.2 | 70.7 ± 7.3 | 67.6 ± 4.7 | 67.5 ± 5.2 | 49.9 ± 2.6 | 92.9 ± 1.8 | 79 ± 2 | 74.3 ± 4.4 | 73.9 ± 5.5 | 61.2 ± 4.1 | 47.4 ± 2 |
| CN(C)CCOC(c1ccccc1)c1ccccc1 [Diphenhydramine HCl] | 105 ± 6 | 97.7 ± 7.7 | 99.9 ± 7.9 | 110 ± 1.5 | 91.1 ± 2.4 | 101 ± 4.7 | 89.4 ± 6.2 | 82.9 ± 10 | 106.2 ± 0.96 | 97.3 ± 2.9 | 97.6 ± 1.7 | 99.2 ± 1.8 |
| OCCN(CCO)c1nc(N2CCCCC2)c2nc(N(CCO)CCO)nc(N3CCCCC3)c2n1 [Dipyridamole] | 102 ± 3 | 98.3 ± 2.2 | 101.5 ± 1 | 95.2 ± 2.5 | 96.7 ± 2.7 | 93.4 ± 8.5 | 101 ± 2.4 | 103.1 ± 0.96 | 103 ± 2.1 | 104 ± 5.4 | 101 ± 6.3 | 101 ± 1.5 |
| CC(=O)O[C@@]12CO[C@@H]1C[C@H](O)[C@@]1(C)C(=O)[C@H](O)C3=C(C)[C@@H](OC(=O)[C@H](O)[C@@H](NC(=O)OC(C)(C)C)c4ccccc4)C[C@@](O)([C@@H](OC(=O)c4ccccc4)[C@H]21)C3(C)C [Docetaxel] | 36.3 ± 1.5 | 32.17 ± 0.058 | 33.5 ± 1.1 | 32.5 ± 0.43 | 31.8 ± 0.54 | 41.7 ± 1.1 | 57 ± 0.81 | 50.6 ± 1 | 42.9 ± 1.7 | 33.2 ± 0.49 | 35.55 ± 0.17 | 55.5 ± 2 |
| O=c1[nH]c2ccccc2n1CCCN1CCC(n2c(=O)[nH]c3cc(Cl)ccc32)CC1 [Domperidone (Motilium)] | 102.7 ± 0.59 | 96 ± 10 | 95.3 ± 3.6 | 106 ± 1.3 | 98.8 ± 1.5 | 90.8 ± 2.7 | 99.17 ± 0.87 | 93.61 ± 0.19 | 103.3 ± 0.16 | 110 ± 2 | 101.1 ± 0.98 | 96.7 ± 2 |
| COc1cc2c(cc1OC)C(=O)C(CC1CCN(Cc3ccccc3)CC1)C2 (centres undefined) [Donepezil HCl] | 96.2 ± 3.9 | 108 ± 4.1 | 103.6 ± 0.26 | 111 ± 1.3 | 101.6 ± 0.44 | 86.8 ± 1.3 | 93.1 ± 3 | 105 ± 2.5 | 102 ± 4.3 | 106 ± 1.8 | 104 ± 3.4 | 93.21 ± 0.93 |
| NCCc1ccc(O)c(O)c1 [Dopamine HCl] | 97.5 ± 9.6 | 112 ± 3.6 | 107 ± 3 | 105 ± 2.4 | 89.7 ± 7.8 | 74.1 ± 1.9 | 102.3 ± 0.35 | 99.6 ± 4.5 | 99 ± 1.9 | 100.1 ± 1 | 92.8 ± 2 | 95.4 ± 3.1 |
| CCN[C@H]1C[C@H](C)S(=O)(=O)c2sc(S(N)(=O)=O)cc21 [Dorzolamide HCl] | 98.73 ± 0.8 | 104.2 ± 0.95 | 108 ± 1.7 | 106.3 ± 0.82 | 96.9 ± 2.5 | 103 ± 3.9 | 99 ± 2.7 | 103 ± 3.2 | 103 ± 1.3 | 103 ± 1.4 | 102 ± 3.7 | 97.53 ± 0.19 |
| COc1cc2nc(N3CCN(C(=O)C4COc5ccccc5O4)CC3)nc(N)c2cc1OC (centres undefined) [Doxazosin mesylate] | 101 ± 0.75 | 99.06 ± 0.17 | 102.2 ± 0.51 | 100 ± 2.2 | 99.87 ± 0.89 | 95.9 ± 2.9 | 98.4 ± 1.8 | 95.8 ± 1.5 | 108 ± 2.6 | 101 ± 3.2 | 100.5 ± 0.52 | 88.314 ± 0.032 |
